In ChEMBL document CHEMBL2203255, “Nerve growth factor-potentiating benzofuran derivatives from the medicinal fungus Phellinus ribis” (J Nat Prod, 2012) one finds Activity data, which are given here for four compounds.

Calls of active or inactive are those of the source. The calls are words filed in the database; no cut-off is given here.

In this assay the test system is PC-12. In words: Neuritogenic activity in rat PC12 cells assessed as potentiation of NGF-induced neurite outgrowth at 1 to 30 uM after 4 days by phase-contrast microscopy in presence of 1 ng/ml NGF. Type of assay: functional, cell-based.
Regarding `CO[C@@H]1[C@H](OC)C(=O)c2c(oc3ccccc23)[C@@H]1O`, the outcome was Active.
In the case of `CO[C@H]1[C@H](O)c2oc3ccccc3c2C(=O)[C@@H]1OC` it was “Active”.
In the case of `CO[C@@H]1C(=O)c2c(oc3ccccc23)[C@H](O)[C@H]1O` it was “Active”.
In the case of `CO[C@H]1[C@H](OC)C(=O)c2c(oc3c(O)cccc23)[C@@H]1O` it was “Active”.
